According to patent US10167262B2, “Herbicidal substituted 3-arylpyrazoles” (FMC CORPORATION, priority 2014, dated 2019):
Where two headings read alike, the source gives them in different places.

What was measured:
Format in all cases: in vivo
kochia (Kochia scoparia) = assay: Test C postemergence greenhouse test, plant response rating 0-100; conditions: Bassia scoparia, post-emergence
Procedure, shortened: (§1)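 Plants rated visually 0 (no effect) to 100 (complete control) against untreated controls after 13 to 15 days in the greenhouse, dash indicating no result. Treatment was a postemergence application of formulated chemicals at the 1- to 4-leaf stage (2 to 18 cm), in pots of peat-vermiculite medium.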

wild oat (Avena fatua) = assay: as above; conditions: Avena fatua, post-emergence
Procedure, shortened: as §1

[1] = tested on: chickweed (common chickweed, Stellaria media); assay: as above; conditions: Stellaria media, post-emergence
Procedure, shortened: as §1

[2] = tested on: giant foxtail (Setaria faberii); assay: Test A pre-/postemergence greenhouse herbicide test, visual injury rating 0-100; conditions: for pest or weed control at 500 g/ha: 500 g ai/ha
Procedure, shortened: (§2)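 Ratings are visual, 0 to 100 relative to untreated plants, taken approximately 10 days post-treatment in the greenhouse. Both preemergence soil and postemergence foliar routes were used with surfactant-containing non-phytotoxic solvent formulations.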

[3] = tested on: large (Lg) crabgrass (Digitaria sanguinalis); assay: as above; conditions: for pest or weed control at 500 g/ha: 500 g ai/ha
Procedure, shortened: as §2

[4] = tested on: barnyardgrass (Echinochloa crus-galli); assay: as above; conditions: for pest or weed control at 500 g/ha: 500 g ai/ha
Procedure, shortened: as §2

corn (Zea mays) = assay: as above; conditions: for plant injury at 500 g/ha: 500 g ai/ha
Procedure, shortened: as §2

[5] = tested on: wheat (Triticum aestivum); assay: as above; conditions: for plant injury at 500 g/ha: 500 g ai/ha
Procedure, shortened: as §2

[6] = tested on: pigweed (Amaranthus retroflexus); assay: as above; conditions: for pest or weed control at 500 g/ha: 500 g ai/ha
Procedure, shortened: as §2

[7] = tested on: velvetleaf (Abutilon theophrasti); assay: as above; conditions: for pest or weed control at 500 g/ha: 500 g ai/ha
Procedure, shortened: as §2

[8] = tested on: morningglory (Ipomoea spp.); assay: as above; conditions: for pest or weed control at 500 g/ha: 500 g ai/ha
Procedure, shortened: as §2

[9] = tested on: giant foxtail (Setaria faberii); assay: Test C pre-/postemergence greenhouse test, plant response rating 0-100; conditions: Setaria faberi; for pest or weed control at 62 g/ha: 62 g ai/ha; for pest or weed control at 125 g/ha: 125 g ai/ha; for pest or weed control at 250 g/ha: 250 g ai/ha; for pest or weed control at 500 g/ha: 500 g ai/ha
Procedure, shortened: (§3)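 Pre-emergence soil and post-emergence foliar sprays were applied simultaneously to seeded loam–sand pots and to 1–4-leaf plants in peat medium; greenhouse holding lasted 13–15 days, then plants were scored visually from 0 (no effect) to 100 (complete control).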

[10] = tested on: winter wheat (Triticum aestivum); assay: as above; conditions: Triticum aestivum; for plant injury at 62 g/ha: 62 g ai/ha; for plant injury at 125 g/ha: 125 g ai/ha; for plant injury at 250 g/ha: 250 g ai/ha; for plant injury at 500 g/ha: 500 g ai/ha
Procedure, shortened: as §3

[11] = tested on: johnsongrass (Sorghum halepense); assay: as above; conditions: Sorghum halepense; for pest or weed control at 62 g/ha: 62 g ai/ha; for pest or weed control at 125 g/ha: 125 g ai/ha; for pest or weed control at 250 g/ha: 250 g ai/ha; for pest or weed control at 500 g/ha: 500 g ai/ha
Procedure, shortened: as §3

[12] = post-emergence, Postemergence, read-out: Plant response rating (0 to 100), Foxtail, Giant
[13] = post-emergence, Postemergence, scale 0 to 100
[14] = pre-emergence, Preemergence, read-out: Plant response rating, Foxtail, Giant
[15] = post-emergence, Postemergence, read-out: Plant response rating (0 to 100), Wheat
[16] = pre-emergence, Preemergence, read-out: Plant response rating, Wheat
[17] = post-emergence, Postemergence, read-out: Plant response rating (0 to 100), Johnsongrass
[18] = pre-emergence, Preemergence, read-out: Plant response rating, Johnsongrass

Which results are given for `COCC(=O)n1cc(C(=O)c2ccccc2)c(-c2cc(Cl)cc(Cl)c2)n1` [Compound 16, 1-[4-benzoyl-3-(3,5-dichlorophenyl)-1H-pyrazol-1-yl]-2-methoxyethanone]?
pest or weed control at 62 g/ha (kochia (Kochia scoparia); 62 g ai/ha): 80%; pest or weed control at 125 g/ha (kochia (Kochia scoparia); 125 g ai/ha): 85%; pest or weed control at 250 g/ha (kochia (Kochia scoparia); 250 g ai/ha, scale 0 to 100): 90%; pest or weed control at 500 g/ha (kochia (Kochia scoparia); 500 g ai/ha, scale 0 to 100): 90%; pest or weed control at 62 g/ha (wild oat (Avena fatua); 62 g ai/ha): 0%; pest or weed control at 125 g/ha (wild oat (Avena fatua); 125 g ai/ha): 0%; pest or weed control at 250 g/ha (wild oat (Avena fatua); 250 g ai/ha, scale 0 to 100): 0%; pest or weed control at 500 g/ha (wild oat (Avena fatua); 500 g ai/ha, scale 0 to 100): 0%; pest or weed control at 62 g/ha ([1]; 62 g ai/ha): 95%; pest or weed control at 125 g/ha ([1]; 125 g ai/ha): 100%; pest or weed control at 250 g/ha ([1]; 250 g ai/ha, scale 0 to 100): 100%; pest or weed control at 500 g/ha ([1]; 500 g ai/ha, scale 0 to 100): 100%; Foxtail, Giant plant response rating (0 = no effect, 100 = complete control) ([2]; Preemergence, 125 g ai/ha): 0; pest or weed control at 125 g/ha ([2]; Setaria faberi, post-emergence, 240 h, Postemergence, 125 g ai/ha, read-out: Plant response rating (0 to 100 scale), Foxtail, Giant): 0%; pest or weed control at 500 g/ha ([2]; Setaria faberi, post-emergence, 240 h, Postemergence, read-out: Plant response rating (0 to 100 scale), Foxtail, Giant): 0%; pest or weed control at 500 g/ha ([2]; Setaria faberi, pre-emergence, 240 h, Preemergence, read-out: Plant response rating (0 to 100 scale), Foxtail, Giant): 0%; pest or weed control at 125 g/ha ([3]; Digitaria sanguinalis, post-emergence, 240 h, Postemergence, 125 g ai/ha, read-out: Plant response rating (0 to 100 scale), Crabgrass, Large): 0%; pest or weed control at 500 g/ha ([3]; Digitaria sanguinalis, post-emergence, 240 h, Postemergence, read-out: Plant response rating (0 to 100 scale), Crabgrass, Large): 0%; pest or weed control at 500 g/ha ([3]; Digitaria sanguinalis, pre-emergence, 240 h, Preemergence, read-out: Plant response rating (0 to 100 scale), Crabgrass, Large): 0%; Crabgrass, Large plant response rating (0 = no effect, 100 = complete control) ([3]; Preemergence, 125 g ai/ha): 0; pest or weed control at 125 g/ha ([4]; Echinochloa crus-galli, post-emergence, 240 h, Postemergence, 125 g ai/ha, read-out: Plant response rating (0 to 100 scale), Barnyardgrass): 0%; pest or weed control at 500 g/ha ([4]; Echinochloa crus-galli, post-emergence, 240 h, Postemergence, read-out: Plant response rating (0 to 100 scale), Barnyardgrass): 0%; pest or weed control at 500 g/ha ([4]; Echinochloa crus-galli, pre-emergence, 240 h, Preemergence, read-out: Plant response rating (0 to 100 scale), Barnyardgrass): 0%; Barnyardgrass plant response rating (0 = no effect, 100 = complete control) ([4]; Preemergence, 125 g ai/ha): 0; Corn plant response rating (0 = no effect, 100 = complete control) (corn (Zea mays); Preemergence, 125 g ai/ha): 0; plant injury at 125 g/ha (corn (Zea mays); Zea mays, post-emergence, 240 h, Postemergence, 125 g ai/ha, read-out: Plant response rating (0 to 100 scale), Corn): 0%; plant injury at 500 g/ha (corn (Zea mays); Zea mays, post-emergence, 240 h, Postemergence, read-out: Plant response rating (0 to 100 scale), Corn): 0%; plant injury at 500 g/ha (corn (Zea mays); Zea mays, pre-emergence, 240 h, Preemergence, read-out: Plant response rating (0 to 100 scale), Corn): 0%; Wheat plant response rating (0 = no effect, 100 = complete control) ([5]; Preemergence, 125 g ai/ha): 0; plant injury at 125 g/ha ([5]; Triticum aestivum, post-emergence, 240 h, Postemergence, 125 g ai/ha, read-out: Plant response rating (0 to 100 scale), Wheat): 0%; plant injury at 500 g/ha ([5]; Triticum aestivum, post-emergence, 240 h, Postemergence, read-out: Plant response rating (0 to 100 scale), Wheat): 0%; plant injury at 500 g/ha ([5]; Triticum aestivum, pre-emergence, 240 h, Preemergence, read-out: Plant response rating (0 to 100 scale), Wheat): 0%; pest or weed control at 125 g/ha ([6]; Amaranthus retroflexus, post-emergence, 240 h, Postemergence, 125 g ai/ha, read-out: Plant response rating (0 to 100 scale), Pigweed): 80%; pest or weed control at 500 g/ha ([6]; Amaranthus retroflexus, post-emergence, 240 h, Postemergence, read-out: Plant response rating (0 to 100 scale), Pigweed): 100%; pest or weed control at 500 g/ha ([6]; Amaranthus retroflexus, pre-emergence, 240 h, Preemergence, read-out: Plant response rating (0 to 100 scale), Pigweed): 100%; Pigweed plant response rating (0 = no effect, 100 = complete control) ([6]; Preemergence, 125 g ai/ha): 60; pest or weed control at 125 g/ha ([7]; Abutilon theophrasti, post-emergence, 240 h, Postemergence, 125 g ai/ha, read-out: Plant response rating (0 to 100 scale), Velvetleaf): 80%; pest or weed control at 500 g/ha ([7]; Abutilon theophrasti, post-emergence, 240 h, Postemergence, read-out: Plant response rating (0 to 100 scale), Velvetleaf): 90%; pest or weed control at 500 g/ha ([7]; Abutilon theophrasti, pre-emergence, 240 h, Preemergence, read-out: Plant response rating (0 to 100 scale), Velvetleaf): 80%; Velvetleaf plant response rating (0 = no effect, 100 = complete control) ([7]; Preemergence, 125 g ai/ha): 20; pest or weed control at 125 g/ha ([8]; Ipomoea, post-emergence, 240 h, Postemergence, 125 g ai/ha, read-out: Plant response rating (0 to 100 scale), Morningglory): 0%; pest or weed control at 500 g/ha ([8]; Ipomoea, post-emergence, 240 h, Postemergence, read-out: Plant response rating (0 to 100 scale), Morningglory): 0%; pest or weed control at 500 g/ha ([8]; Ipomoea, pre-emergence, 240 h, Preemergence, read-out: Plant response rating (0 to 100 scale), Morningglory): 0%; Morningglory plant response rating (0 = no effect, 100 = complete control) ([8]; Preemergence, 125 g ai/ha): 0; pest or weed control at 62 g/ha [9, 12]: 0%; pest or weed control at 125 g/ha [9, 12]: 0%; pest or weed control at 250 g/ha [9, 13]: 0%; pest or weed control at 500 g/ha [9, 13]: 10%; pest or weed control at 62 g/ha [9, 14]: 0%; pest or weed control at 125 g/ha [9, 14]: 0%; pest or weed control at 250 g/ha ([9]; pre-emergence, Preemergence): 0%; pest or weed control at 500 g/ha ([9]; pre-emergence, Preemergence): 0%; plant injury at 62 g/ha [10, 15]: 0%; plant injury at 125 g/ha [10, 15]: 0%; plant injury at 250 g/ha [10, 13]: 0%; plant injury at 500 g/ha [10, 13]: 0%; plant injury at 62 g/ha [10, 16]: 0%; plant injury at 125 g/ha [10, 16]: 0%; plant injury at 250 g/ha ([10]; pre-emergence, Preemergence): 0%; plant injury at 500 g/ha ([10]; pre-emergence, Preemergence): 0%; pest or weed control at 62 g/ha [11, 17]: 0%; pest or weed control at 125 g/ha [11, 17]: 0%; pest or weed control at 250 g/ha [11, 13]: 0%; pest or weed control at 500 g/ha [11, 13]: 0%; pest or weed control at 62 g/ha [11, 18]: 0%; pest or weed control at 125 g/ha [11, 18]: 0%; pest or weed control at 250 g/ha ([11]; pre-emergence, Preemergence): 0%; pest or weed control at 500 g/ha ([11]; pre-emergence, Preemergence): 0%
